Marks after values point to notes of the source that are not given here.
Legend:
[1] = test system: Puccinia recondita f. sp. tritici; assay: Test K: wheat leaf rust, preventive spray on wheat seedlings
[2] = test system: Erysiphe graminis f. sp. tritici; assay: Test L: wheat powdery mildew, preventive spray on wheat seedlings
[3] = test system: Rhizoctonia oryzae; assay: Test G: turf brown patch, preventive spray on creeping bent grass seedlings
Method: (the causal agent of turf brown patch) and incubated in a saturated atmosphere at 27° C. for 24 h, and then moved to a growth chamber at 27° C. for 5 days, after which disease ratings were made.

[4] = test system: Colletotrichum orbiculare; assay: Test B: cucumber Colletotrichum anthracnose, preventive spray on cucumber seedlings
[5] = test system: Septoria nodorum; assay: Test H: wheat glum blotch, preventive spray on wheat seedlings
Method: (the causal agent of wheat glum blotch) and incubated in a saturated atmosphere at 20° C. for 48 h, and then moved to a growth chamber at 22° C. for 5 days, after which disease ratings were made.

[6] = test system: Plasmopara viticola; assay: Test D: grape downy mildew, spray after inoculation of grape seedlings; format: in vivo
Source text: Upon removal, disease ratings were made. […] A dash (-) indicates no test results.

[7] = test system: Botrytis cinerea; assay: Test E: tomato botrytis, preventive spray on tomato seedlings
[8] = test system: Pythium aphanidermatum; assay: Test A: bluegrass pythium blight, preventive spray on bluegrass seedlings
[9] = test system: Phytophthora infestans; assay: whole plant or invertebrate; format: in vivo
[10] = test system: fusarium graminearium; assay: Test I: wheat head scab, preventive spray on wheat seedlings
Method: (the causal agent of wheat head scab) and incubated in a saturated atmosphere at 20° C. for 72 h, and then moved to a growth chamber at 22° C. for 5 days, after which disease ratings were made.

[11] = test system: Septoria tritici; assay: Test J: wheat leaf blotch, preventive spray on wheat seedlings; format: in vivo
Source text: A dash (-) indicates no test results.

Row | Compound | Test K disease control rating ([1]; 40 ppm (*)) | Test L disease control rating ([2]; 40 ppm (*)) | Test G disease control rating ([3]; 40 ppm (*)) | Test B disease control rating ([4]; 40 ppm (*)) | Test H disease control rating ([5]; 40 ppm (*)) | Test D disease control rating ([6]; 40 ppm (*)) | Test E disease control rating ([7]; 40 ppm (*)) | Test A disease control rating ([8]; 40 ppm (*)) | Test F disease control rating ([9]; 40 ppm (*)) | Test I disease control rating ([10]; 40 ppm (*)) | Test J disease control rating ([11]; 40 ppm (*)) | also measured
1 | O=c1c(-n2cccn2)nc(Cl)c(-c2c(F)cccc2F)n1Cc1ccco1 [compound 187] | 91* % | 0* % | 0* % | 0* % | 0* % | 0* % | 96* % | 0* % | 0* % | 0* % | 77* % | 
2 | O=c1c(-n2cncn2)nc(Cl)c(-c2c(F)cccc2F)n1Cc1ccco1 [compound 188] | 0* % | 0* % | 0* % | 0* % | 0* % | 0* % | 56* % | 0* % | 0* % | 0* % | 23* % | 
3 | N#Cc1nc(Cl)c(-c2c(F)cccc2F)n(Cc2ccco2)c1=O [compound 189] | 0* % | 0* % | 0* % | 0* % | 0* % | 0* % | 0* % | 0* % | 0* % | 0* % | 15* % | 
4 | CC(C)Cn1c(-c2c(F)cccc2F)c(Cl)nc(-c2cnc3ccccn23)c1=O [compound 190] |  |  |  |  |  |  |  |  |  |  |  | Test K disease control rating ([1]; 200 ppm): 0%; Test L disease control rating ([2]; 200 ppm): 0%; Test G disease control rating ([3]; 200 ppm): 0%; Test B disease control rating ([4]; 200 ppm): 0%; Test H disease control rating ([5]; 200 ppm): 0%; Test D disease control rating ([6]; 200 ppm): 0%; Test E disease control rating ([7]; 200 ppm): 0%; Test A disease control rating ([8]; 200 ppm): 0%; Test F disease control rating ([9]; 200 ppm): 0%; Test I disease control rating ([10]; 200 ppm): 0%; Test J disease control rating ([11]; 200 ppm): 0%
5 | CCC(C)Cn1c(-c2c(F)cccc2F)c(Cl)nc(-n2nccn2)c1=O (centres unmarked) [compound 191] |  |  |  |  |  |  |  |  |  |  |  | Test K disease control rating ([1]; 200 ppm): 86%; Test L disease control rating ([2]; 200 ppm): 0%; Test G disease control rating ([3]; 200 ppm): 0%; Test B disease control rating ([4]; 200 ppm): 0%; Test H disease control rating ([5]; 200 ppm): 0%; Test D disease control rating ([6]; 200 ppm): 0%; Test E disease control rating ([7]; 200 ppm): 97%; Test A disease control rating ([8]; 200 ppm): 0%; Test F disease control rating ([9]; 200 ppm): 0%; Test I disease control rating ([10]; 200 ppm): 0%; Test J disease control rating ([11]; 200 ppm): 36%
6 | CC(C)Cn1c(-c2ccccc2Cl)c(Cl)nc(-n2cncn2)c1=O [compound 192] | 89* % | 0* % | 31* % | 0* % | 0* % | 0* % | 99* % | 0* % | 0* % | 0* % | 98* % | 
7 | CC(C)Cn1c(-c2ccccc2Cl)c(Cl)nc(-n2cccn2)c1=O [compound 193] | 100* % | 68* % | 33* % | 29* % | 89* % | 17* % | 100* % | 0* % | 0* % | 0* % | 99* % | 

Source: patent US20080194585A1, “Fungicidal Pyrazine Derivatives” (priority 2005, published 2008)
